Measured values: publication PMC7114863 (Journal of Hepatology, 2009)

Columns and labels:
HuH6 replicons = assay: Anti-HCV replicon assay in HuH6 cells; settings: Hepatitis C virus, HuH-6, read-out: Anti-HCV activity EC50, HuH6
BILN-2061^res replicon = assay: Anti-HCV assay, BILN-2061 resistant replicon; settings: for EC50: Hepatitis C virus, read-out: EC50, BILN-2061^res; for fold resistance, BILN-2061^res: versus wild-type replicon
[1] = system: VX-950^res and BILN-2061^res replicon; assay: Anti-HCV assay, VX-950 and BILN-2061 double resistant replicon; settings: for EC50: Hepatitis C virus, read-out: EC50, VX-950^res and BILN-2061^res; for fold resistance, VX-950^res and BILN-2061^res: versus wild-type replicon
[2] = system: HCV replicon in Huh 9-13 cells; assay: HCV replicon clearance-rebound assay; type: cell-based; settings: for clearance of replicon, drug alone: 20 × EC50, Huh 9-13; for drug resistant replicon in cells surviving rebound conditions: after treatment, addition of G418, data not shown
Cytostatic assay = type: cell-based; settings: human, HCV replicon-containing cells (Huh 5-2, HuH6 or Huh 9-13)
[3] = system: 4′-Azidocytidine^res replicon; assay: Anti-HCV assay, 4′-azidocytidine resistant replicon; settings: for EC50: Hepatitis C virus, read-out: EC50, 4′-Azidocytidine^res; for fold resistance, 4′-Azidocytidine^res: versus wild-type replicon
[4] = system: J6/JFH chimeric HCV reporter virus (J6/JFH-Rluc2a-FLAG); assay: Antiviral assay with HCVcc virus in Huh-Lunet cells; type: cell-based, HCV genotype 2a; settings: for EC50: Hepatitis C virus, 72 h, read-out: Anti-HCV activity EC50, J6/JFH
2′-C-MeCyt^res replicon = assay: Anti-HCV assay, 2′-C-MeCyt resistant replicon; settings: for EC50: Hepatitis C virus, read-out: EC50, 2′-C-MeCyt^res; for fold resistance, 2′-C-MeCyt^res: versus wild-type replicon
[5] = NADPH-dependent metabolic stability in human hepatic microsomes; type: in vitro ADME
[6] = Stability in basic and acidic solutions; type: physicochemical
[7] = system: HIV-2 (ROD, retroviridae); assay: Antiviral assay, HIV-2; type: cell-based; settings: data not shown
[8] = system: feline coronavirus (coronaviridae); assay: Antiviral assay, feline coronavirus; type: cell-based; settings: data not shown
[9] = system: bovine viral diarrhea virus (BVDV, flaviviridae); assay: Antiviral assay with BVDV; type: cell-based
[10] = system: influenza B virus (orthomyxoviridae); assay: Antiviral assay, influenza B virus; type: cell-based; settings: data not shown
[11] = NADPH-dependent metabolic stability in dog hepatic microsomes; type: in vitro ADME
YFV-17D (flaviviridae) = type: cell-based, yellow fever virus
[12] = system: respiratory syncytial virus (paramyxoviridae); assay: Antiviral assay, respiratory syncytial virus; type: cell-based; settings: data not shown
[13] = system: Punta Toro virus (bunyaviridae); assay: Antiviral assay, Punta Toro virus; type: cell-based; settings: data not shown
reovirus-1 (reoviridae) = assay: Antiviral assay, reovirus; type: cell-based; settings: data not shown
[14] = system: vaccinia virus (poxviridae); assay: Antiviral assay, vaccinia virus; type: cell-based; settings: data not shown
GSK-4^res replicon = assay: Anti-HCV assay, GSK-4 resistant replicon
[15] = system: herpes simplex virus-1 (KOS strain, TK^− KOS ACV^r); assay: Antiviral assay, herpes simplex virus-1; type: cell-based; settings: data not shown
[16] = system: HCV subgenomic 1b replicon; assay: Anti-HCV subgenomic replicon assay; type: cell-based
[17] = NADPH-dependent metabolic stability in rat hepatic microsomes; type: in vitro ADME
[18] = system: herpes simplex virus-2 (G strain, herpesviridae); assay: Antiviral assay, herpes simplex virus-2; type: cell-based; settings: data not shown
[19] = system: HuH6 replicon-containing cells; assay: Drug combinations in HuH6 cells; type: cell-based, HCV; settings: checkerboard
[20] = system: para-influenza-3 virus (paramyxoviridae); assay: Antiviral assay, para-influenza virus; type: cell-based; settings: data not shown
[21] = system: influenza A virus (H1N1 and H3N2); assay: Antiviral assay, influenza A virus; type: cell-based; settings: data not shown
[22] = system: coxsackie virus B4 (picornaviridae); assay: Antiviral assay, coxsackie virus; type: cell-based; settings: data not shown
[23] = system: sindbis virus (alphaviridae); assay: Antiviral assay, sindbis virus; type: cell-based; settings: data not shown
HIV-1 (IIIB) = assay: Antiviral assay, HIV-1; type: cell-based; settings: data not shown
[24] = system: vesicular stomatitis virus (rhabdoviridae); type: cell-based
[25] = 300 nM, Huh 9-13, data not shown

## C[C@@]1(O)[C@H](O)[C@@H](CO)O[C@H]1n1ccc(N)nc1=O [2′-C-MeCyt, 2′-C-Methylcytidine]
HuH6 replicons
  EC50: 1020 ± 440 nM
BILN-2061^res replicon
  EC50: 910 ± 1100 nM
  fold resistance, BILN-2061^res: (2.1)
[1]
  EC50: 1000 ± 700 nM
  fold resistance, VX-950^res and BILN-2061^res: (2.3)
[2]
  clearance of replicon, drug alone: failed to achieve clearance
  drug resistant replicon in cells surviving rebound conditions: did not contain drug resistant replicon
Cytostatic assay
  CC50: ≥ 26000 nM
[3]
  EC50: 3400 ± 1100 nM
  fold resistance, 4′-Azidocytidine^res: (7.9)
[4]
  EC50: 100 ± 20 nM
2′-C-MeCyt^res replicon
  EC50: ≥ 30000 nM
  fold resistance, 2′-C-MeCyt^res: ⩾81

## [N-]=[N+]=N[C@]1(CO)O[C@@H](n2ccc(N)nc2=O)[C@H](O)[C@@H]1O [4′-Azidocytidine, 4′-azidocytidine]
HuH6 replicons
  EC50: 7400 ± 3700 nM
Cytostatic assay
  CC50: > 33000 nM
[3]
  EC50: ≥ 16000 nM
  fold resistance, 4′-Azidocytidine^res: (⩾5.5)
2′-C-MeCyt^res replicon
  EC50: 1200 ± 430 nM
  fold resistance, 2′-C-MeCyt^res: (0.41)

## COc1ccc2c(O[C@@H]3C[C@H]4C(=O)N[C@]5(C(=O)O)C[C@H]5/C=C\CCCCC[C@H](NC(=O)OC5CCCC5)C(=O)N4C3)cc(-c3csc(NC(C)C)n3)nc2c1 [BILN-2061]
HuH6 replicons
  EC50: 4 ± 2 nM
BILN-2061^res replicon
  EC50: 1300 ± 470 nM
  fold resistance, BILN-2061^res: (130)
[1]
  EC50: 800 ± 80 nM
  fold resistance, VX-950^res and BILN-2061^res: (80)
Cytostatic assay
  CC50: ≥ 22000 nM
[3]
  EC50: 14 ± 8 nM
  fold resistance, 4′-Azidocytidine^res: (0.93)
2′-C-MeCyt^res replicon
  EC50: 40 ± 30 nM
  fold resistance, 2′-C-MeCyt^res: (4.0)

## Fc1cccc(-c2nc3ccn(Cc4cc(-c5ccc(Cl)cc5)no4)cc-3n2)c1F [GS-327073, 5-[[3-(4-chlorophenyl)-5-isoxazolyl]methyl]-2-(2,3-difluorophenyl)-5H-imidazo[4,5-c]pyridine]
[5]; human hepatic microsomes, NADPH-dependent
  microsomal half-time: 236 min
[5]; human microsomes
  predicted hepatic clearance: 2.5 mL/min/kg
[6]; pH 2.2
  stability in acidic solution: remained stable
[6]; pH 7.3
  stability in basic solution: remained stable
[7]
  activity against human immunodeficiency virus 2: inactive
HuH6 replicons
  EC50: 50 ± 20 nM
[8]
  activity against feline coronavirus: inactive
BILN-2061^res replicon
  activity against BILN-2061 resistant replicons: retained wild-type activity
  EC50: 9 ± 5 nM
  fold resistance, BILN-2061^res: (4.5)
[9]
  cross-resistance with BPIP in anti-BVDV assay: cross-resistant
[9]; compared to compound 1
  fold less potent against BVDV than compound 1: about 10 fold
[10]
  activity against influenza virus B: inactive
[11]; dog hepatic microsomes, NADPH-dependent
  microsomal half-time: 88 min
[11]; dog microsomes
  predicted hepatic clearance: 6 mL/min/kg
YFV-17D (flaviviridae)
  activity against yellow fever virus (17D): inactive
[12]
  activity against respiratory syncitial virus: inactive
[13]
  activity against Punta Toro virus: inactive
reovirus-1 (reoviridae)
  activity against reovirus: inactive
[14]
  activity against vaccinia virus: inactive
GSK-4^res replicon
  activity against GSK-4 resistant replicons: retained wild-type activity
GSK-4^res replicon; Hepatitis C virus, read-out: EC50, GSK-4^res
  EC50: 11 ± 1 nM
GSK-4^res replicon; versus wild-type replicon
  fold resistance, GSK-4^res: (5.5)
[15]
  activity against herpes simplex virus 1: inactive
[16]; CC50/EC50
  selectivity indices: ≥ 340
[16]; Hepatitis C virus, GETYPE1, read-out: mean EC50 values, HCV (genotype 1) subgenomic replicon replication
  EC50: 2 to 50 nM
[17]; rat hepatic microsomes, NADPH-dependent
  microsomal half-time: 96 min
[17]; rat microsomes
  predicted hepatic clearance: 10.5 mL/min/kg
[18]
  activity against herpes simplex virus 2: inactive
[19]
  combined antiviral activity with 2′-C-MeCyt: additive antiviral activity
  combined antiviral activity with IFNα 2b: additive antiviral activity
  combined antiviral activity with VX-950: additive antiviral activity
  combined antiviral activity with low concentrations of IFNα 2b: slight synergistic effect
  combined antiviral activity with ribavirin: additive antiviral activity
[20]
  activity against para-influenza virus: inactive
[1]
  activity against BILN-2061/VX-950 double resistant replicons: retained wild-type activity
  fold resistance, VX-950^res and BILN-2061^res: (2.0)
[1]; [25]
  fate of cells containing VX-950/BILN-2061^res replicon under G418 pressure: died following only one passage
[21]
  activity against influenza virus A: inactive
[2]
  clearance of replicon, drug alone: failed to achieve clearance
  drug resistant replicon in cells surviving rebound conditions: did not contain drug resistant replicon
[2]; Huh 9-13
  clearance of replicon, combination GS-327073 (5 × EC50) and VX-950 (5 × EC50): clearance of Huh 9-13 cells from their replicon following one passage
  passages until clearance of replicon RNA, GS-327073 (20 × EC50) with 2′-C-MeCyt (20 × EC50): 2 passages
[2]; five times EC50, 3 passages
  clearance of Huh 9-13 cells from their replicon, drug alone: did not achieve complete clearance
Cytostatic assay
  CC50: ≥ 17000 nM
[3]
  activity against 4′-azidocytidine resistant replicons: retained wild-type activity
  EC50: 7.2 ± 0.8 nM
  fold resistance, 4′-Azidocytidine^res: (3.6)
[22]
  activity against coxsackie virus: inactive
[23]
  activity against sindbis virus: inactive
HIV-1 (IIIB)
  activity against human immunodeficiency virus 1: inactive
[4]
  EC50: 330 ± 140 nM
[4]; versus 1b replicon
  fold higher EC50 for HCV genotype 2a virus than for 1b replicon: 100 fold
2′-C-MeCyt^res replicon
  activity against 2′-C-MeCyt resistant replicons: retained wild-type activity
  EC50: 8 ± 6 nM
  fold resistance, 2′-C-MeCyt^res: (4.0)
2′-C-MeCyt^res replicon; [25]
  fate of cells containing 2′-C-MeCyt^res replicon under G418 pressure: died following only one passage
[24]
  activity against vesicular stomatitis virus: inactive
